Data as given in patent US5103007A, “Lipids” (Takeda Chemical Industries, Ltd., priority 1988, dated 1992).
Converted amounts (≈) assume the structure as drawn.

What was measured:
[1] = test system: human nasopharynx cancer (KB cells); assay: Inhibition of multiplication of human nasopharynx cancer (KB cells), MTT assay; type: cell-based; settings: 72 hours
Method: (§1) The effect (IC50) of the compounds obtained by Examples in inhibiting multiplication of human nasopharynx cancer (KB cells) and human colon adenocarcinoma (colon 205 cells) Each well of a 96-well microtiter plate was inoculated with 0.1 ml of human nasopharynx cancer (KB cells) (1×10^4 /ml) or human colon adenocarcinoma (colon 205 cells) (2×10^4 /ml), which was then subjected to cultivation by allowing to stand at 37° C. for 24 hours in 5% CO2. To the culture was added a 10% MEM solution (manufactured by Nissui Seiyaku or RPMI-1640), and cultivation was continued at 37° C. for 72 hours in 5% CO2. Then, the culture solution was removed with a micro-pipette. […] Incubation was conducted at 37° C for 4 hours, to which was then added 0.1 ml of a 10% SDS (Wako Pure Chemical Industries, Ltd.), and the incubation was continued at 37° C. for 24 hours.

[2] = test system: human colon adenocarcinoma (colon 205 cells); assay: Inhibition of multiplication of human colon adenocarcinoma (colon 205 cells), MTT assay; type: cell-based; settings: 72 hours
Method: as §1

[3] = test system: murine colon cancer (colon 26); assay: Action against murine colon cancer (colon 26) in Balb/C mice; type: in vivo; settings: 0.3 mg/mouse i.p., eight times; tumor weight after 14 days, against untreated control
Method: Action of the compound in Example against murine colon cancer (colon 26)
Balb/C mice (a group consisting of five mice) were inoculated subcutaneously at dorsolateral area with 2×10^5 murine colon cancer (colon 26l) cells, and then given intraperitoneally 0.3 mg/mouse of the compound dissolved in physiological saline, eight times, i.e. 1 day, 2 days, 5 days, 6 days, 8 days, 9 days, 12 days and 13 days after the inoculation. After 14 days, the tumor tissue was extirpated and the tumor weight was weighed. Shown in Table 2 is tumor growth inhibition ratio against the untreated control.

breast cancer cells MM46 = assay: Action against breast cancer cells MM46 in C3H mice; type: in vivo, murine (C3H mice); settings: for Life-span prolongation ratio (T/C %): 0.20 mg/mouse once a day for 4 consecutive days, only related to mice which died; for No. of survivors/No. of mice tested: 0.20 mg/mouse once a day for 4 days, on the 60th day
Method: Action of the compounds obtained in Examples against breast cancer cells MM46
C3H mice (a group consisting of 5 mice) were inoculated intraperitoneally with 1×10^4 MM46 cells per mouse, and given 0.20 mg/mouse of compounds of Examples dissolved in physiological saline once a day for 4 consecutive days starting from the second day after the inoculation. Shown in Table 3 are the life-span prolongation ratio against the control group without treatment and the number of surviving mice on the 60th day after starting the test.

Sarcoma 180 cells = assay: Antitumor effect against Sarcoma 180 cells in ICR mice; type: in vivo, murine (ICR mice); settings: for Life-span prolongation ratio (T/C %): 0.33 mg/mouse i.p. 1 hour, 1 day and 2 days after inoculation, only related to mice which died; for Number of survivors/number of mice tested: 0.33 mg/mouse i.p. three times, on the 60th day
Method: Antitumor effect of compounds of Examples against Sarcoma 180 cells
ICR mice (a group consisting of 5 mice) were inoculated intraperitoneally with 1×10^5 Sarcoma 180 cells per mouse. Then, 0.33 mg/mouse of a compound dissolved in physiological saline was intraperitoneally administered three times, i.e. 1 hour, 1 day and 2 days after the inoculation. Shown in Table 4 are the life-span prolongation ratio against the control group without treatment and the number of surviving mice on the 60th day after the initiation of the test.

[4] = Acute toxicity in CDF-1 female mice; type: in vivo
Method: Acute toxicity of Compounds of Examples
CDF-1 female mice (5-week old: a group of consisting of 5 mice) were given once intraperitoneally 0.2 ml of a physiological saline solution of a compound of Example.

[5] = 50 mg/kg once i.p., after 7 days

Row | Structure (SMILES) | IC50 [1] [µg/mL] | IC50 [2] [µg/mL] | further results
1 | CCCCCCCCCCCCCCCCCCOCC(C[S+]([O-])CCOCC[n+]1ccsc1)Oc1ncccn1 (centres unmarked) [Ex. 1, 2-[2-[3-octadecyloxy-2-(pyrimidin-2-yloxy)propylsulfinyl]ethoxy]ethylthiazolium chloride] | 1.25 | 1.25 | Growth inhibition ratio (1-T/C %) [3]: 48%; Life-span prolongation ratio (T/C %) (breast cancer cells MM46): 147%; No. of survivors/No. of mice tested (breast cancer cells MM46): 4/5; Life-span prolongation ratio (T/C %) (Sarcoma 180 cells): 235%; Number of survivors/number of mice tested (Sarcoma 180 cells): 2/5; No. of dead mice/No. of mice tested ([4]; mouse, in vivo): 0/5
2 | CCCCCCCCCCCCCCCCCCOCC(C[S+]([O-])CCOCC[n+]1ccccc1)Oc1ncccn1.[Cl-] (centres unmarked) [Ex. 2, N-[2-[2-[3-octadecyloxy-2-(pyrimidin-2-yloxy)propylsulfinyl]ethoxy]ethyl]pyridinium chloride] | 0.32 | 0.16 | Life-span prolongation ratio (T/C %) (breast cancer cells MM46): 150%; No. of survivors/No. of mice tested (breast cancer cells MM46): 2/5; No. of dead mice/No. of mice tested ([4]; mouse, in vivo): 0/5
3 | CCCCCCCCCCCCCCCCCCOCC(C[S+]([O-])CCOCC[n+]1cccc(CCCO)c1)Oc1ncccn1.[Cl-] (centres unmarked) [Ex. 3, 3-(3-hydroxypropyl)-1-[2-[2-[3-octadecyloxy-2-(pyrimidin-2-yloxy)propylsulfinyl]ethoxy]-ethyl]pyridinium chloride] | 0.16 | 0.63 | Life-span prolongation ratio (T/C %) (Sarcoma 180 cells): 223%; Number of survivors/number of mice tested (Sarcoma 180 cells): 2/5
4 | CCCCCCCCCCCCCCCCCCOCC(C[S+]([O-])CCOCC[n+]1csc(CCO)c1C)Oc1ncccn1.[Cl-] (centres unmarked) [Ex. 6, 5-(2-hydroxyethyl)-4-methyl-3-[2-[2-[3-octadecyloxy-2-(pyrimidin-2-yloxy)propylsulfinyl]ethoxy]-ethyl]thiazolium chloride] | 0.32 | 0.63 | Life-span prolongation ratio (T/C %) (Sarcoma 180 cells): 213%; Number of survivors/number of mice tested (Sarcoma 180 cells): 1/5
5 | CCCCCCCCCCCCCCCCCCOCC(CSCCOCC[n+]1ccn(CCCCCC(=O)[O-])c1)Oc1ncccn1 (centres unmarked) [Ex. 9, 6-[3-[2-[2-[3-octadecyloxy-2-(pyrimidin-2-yloxy)propylthio]ethoxy]ethyl]imidazolio-1-yl]hexanoate] | 0.32 (≈ 0.463 µM) | 0.63 (≈ 0.912 µM) | No. of dead mice/No. of mice tested ([4]; mouse, in vivo): 0/5
6 | CCCCCCCCCCCCCCCCCCOCC(CSCCOCC[n+]1ccn(CCCC(=O)[O-])c1)Oc1ncccn1 (centres unmarked) [Ex. 11, 4-[3-[2-[2-[3-octadecyloxy-2-(pyrimidin-2-yloxy)propylthio]ethoxy]ethyl]imidazolio-1-yl]butyrate] |  |  | No. of dead mice/No. of mice tested [4, 5]: 0/5
7 | CCCCCCCCCCCCCCCCCCOCC(CSCCCOCCCn1ccnc1)Oc1ncccn1 (centres unmarked) [Ex. 12, N-[3-[3-[3-octadecyloxy-2-(pyrimidin-2-yloxy)propylthio]propoxy]propyl]imidazole] |  |  | No. of dead mice/No. of mice tested [4, 5]: 0/5
8 | CCCCCCCCCCCCCCCCCCOCC(CS(=O)(=O)CCOCC[n+]1ccsc1)Oc1ncccn1 (centres unmarked) [Ex. 19, 2-[2-[3-octadecyloxy-2-(pyrimidin-2-yl-oxy)propylsulfonyl]ethoxy]ethylthiazolium chloride] |  |  | Life-span prolongation ratio (T/C %) (breast cancer cells MM46): 154%; No. of survivors/No. of mice tested (breast cancer cells MM46): 2/5
9 | CCCCCCCCCCCCCCCCCCOCC(CS(=O)(=O)CCOCC[N+](C)(C)C)Oc1ncccn1.[Cl-] (centres unmarked) [Ex. 21, N-[2-[2-[3-octadecyloxy-2-(pyrimidin-2-yloxy)propylsulfonyl]ethoxy]ethyl]-N,N,N-trimethylammonium chloride] | 0.32 |  | Life-span prolongation ratio (T/C %) (breast cancer cells MM46): 144%; No. of survivors/No. of mice tested (breast cancer cells MM46): 2/5
10 | CCCCCCCCCCCCCCCCCCOCC(C[S+]([O-])CCOCC[N+](C)(C)C)Oc1ncccn1.[Cl-] (centres unmarked) [Ex. 24, N-[2-[2-[3-octadecyloxy-2-(pyrimidin-2-yloxy)propylsulfinyl]ethoxy]ethyl]-N,N,N-trimethylammonium chloride] | < 0.16 | 0.63 | Life-span prolongation ratio (T/C %) (Sarcoma 180 cells): 195%; Number of survivors/number of mice tested (Sarcoma 180 cells): 1/5; No. of dead mice/No. of mice tested ([4]; mouse, in vivo): 0/5
11 | CCCCCCCCCCCCCCCCCCOCC(CS(=O)(=O)CCCCCOCCCCC[n+]1ccccc1)Oc1ncccn1.[Cl-] (centres unmarked) [Ex. 42, N-[5-[5-[3-octadecyloxy-2-(pyrimidin-2-yloxy)propylsulfonyl]pentyloxy]pentyl]pyridinium chloride] | 0.32 | 1.25 | 
12 | CCCCCCCCCCCCCCCCCCOCC(CSCCOCC[N+](C)(C)C)OC (centres unmarked) [Ex. 43, N-[2-(2-methoxy-3-oxtadecyloxypropylthio)ethoxy]ethyl-N,N,N-trimethylammonium chloride] | 0.32 | 1.25 | 
13 | CCCCCCCCCCCCCCCCCCOCC(C[S+]([O-])CCOCC[N+](C)(C)C)OC.[Cl-] (centres unmarked) [Ex. 44, N-[2-[2-(2-methoxy-3-octadecyloxypropylsulfinyl)ethoxy]ethyl]-N,N,N-trimethylammonium chloride] | 0.16 | 0.32 | 
14 | CCCCCCCCCCCCCCCCCCOCC(CSCCOCC[n+]1ccn(CCCC(=O)[O-])c1)OC (centres unmarked) [Ex. 45, 4-[3-[2-[2(2-methoxy-3-octadecyloxypropylthio)ethoxy]ethyl]imidazolio-1-yl]butyrate] | 0.63 (≈ 1.05 µM) | 2.5 (≈ 4.17 µM) | 
15 | CCCCCCCCCCCCCCCCCCOCC(CSCCOCC[n+]1cccc(CCCCC(=O)[O-])c1)OC (centres unmarked) [Ex. 46, 5-[1-[2-[2-(2-methoxy-3-octadecyloxypropylthio)ethoxy]ethyl]pyridinio-3-yl]-pentanoate] | 0.32 (≈ 0.513 µM) | 2.5 (≈ 4.01 µM) | 
16 | CCCCCCCCCCCCCCCCCCOCC(CSCCOCCOCC[N+](C)(C)C)Oc1ncccn1 (centres unmarked) [Ex. 47, N-[2-[2-[2-[3-octadecyloxy-2-(pyrimidin-2-yloxy)propylthio]ethoxy]ethoxy]ethyl]-N,N,N,trimethylammonium chloride] | 0.63 | 1.25 | 
17 | CCCCCCCCCCCCCCCCCCOCC(C[S+]([O-])CCOCCOCC[N+](C)(C)C)Oc1ncccn1.[Cl-] (centres unmarked) [Ex. 48, N-[2-[2-[3-octadecyloxy-2-(pyrimidin-2-yloxy)propylsulfinyl]ethoxy]ethoxy]ethyl-N,N,N-trimethylammonium chloride] | 0.16 | 0.63 | 
